{"source": "patent US20190055256A1", "about": "“ANTI-VIRAL DRUG” (DORING INTERNATIONAL GMBH, priority 2016, published 2019)", "experiment": "Physical and chemical characteristics: solubility in solvents", "assay_type": "physicochemical", "data": [{"substance": "sodium salt of 7-methylthio-3-nitro [1, 2, 4] triazolo [5,1-c] [1, 2, 4] triazin-4 (1H)-one", "values": [{"measurement": "solubility in acetone", "setting": "solvent: acetone", "value": "soluble"}, {"measurement": "solubility in chloroform", "setting": "solvent: chloroform", "value": "insoluble"}, {"measurement": "solubility in dimethylformamide", "setting": "solvent: dimethylformamide", "value": "soluble"}, {"measurement": "solubility in dimethylsulfoxide", "setting": "solvent: dimethylsulfoxide", "value": "soluble"}, {"measurement": "solubility in water", "setting": "solvent: water", "value": "soluble"}]}]}
